Test results taken from US11617741B1, “Method for inhibiting growth of bacteria” (priority 2021, dated 2023).
Values after ≈ are worked out from the molar mass of the structure shown. Marks after values point to notes of the source that are not given here.

Experiments:
[1] = test system: ileS and tyrS T-boxes in WT MRSA
Experimental: Sample preparation of RNA and cDNA. RNA extraction and cDNA preparation were conducted as previously reported. In short, guanidine thiocyanate (0.5 M final concentration)-treated and pelleted bacterial cultures were resuspended in TRIzol, lysed by beat beating with zirconia beads, and centrifuged.
The solution was transferred to fresh tubes, and the RNA was extracted with chloroform. The RNA was then pelleted with 100% isopropanol and washed with ice-cold 70% ethanol, resuspended in Millipore water, DNase treated, and extracted with another isopropanol precipitation and ethanol wash. The resulting RNA was quantified using a NanoDrop 3300 (Thermo Fisher), and the quality was assessed by running 1 μg on a denaturing agarose gel. DNA contamination was tested for by PCR followed by agarose gel electrophoresis. cDNA was generated from 1 μg of high-quality RNA using the SuperScript III reverse transcriptase protocol for random primers (Thermo Fisher).
Either 2-fold or 10-fold dilutions of cDNA were used, and amplification was monitored with Evagreen dye. The expression was normalized to either 23S (B. subtilis 1A5) or 16S (MRSA) and reported as percentage read-through of the T-boxes tested for, calculated using the threshold cycle (2^−ΔΔCT) method.

S. aureus N315 = assay: Checkerboard assay and FIC; assay type: cell-based, Staphylococcus aureus
Experimental: S. aureus N315 cultures were prepared identically to MIC determination in BHI media. The co-MICs were determined using the checkerboard method. In short, antibiotics to be tested with PKZ18 analogs were diluted 2-fold top to bottom (A to G rows) in a 96-well plate, PKZ18 analogs were diluted 2-fold right to left (columns 11-2 of the 96-well plate), and column 12 was used for vector, media, and growth controls. Each drug was therefore tested by itself and with every dilution of the other drug.
The synergistic and additive interactions were determined based on determined cutoffs using the equation
[formula] where MICAB is the lowest possible concentration of both drugs combined where there is no growth, and MICA and MICB are the MIC values of the individual drugs. For a synergistic drug interaction, the fractional inhibitory concentration (FIC) should be below 0.5, additive or indifferent effects are considered in an FIC range of 0.5 to <4, and an FIC value above 4 is considered antagonistic.

B. subtilis 168 [2] = assay: Minimum inhibitory concentration determination; assay type: cell-based, Bacillus subtilis
Experimental: (§1) The 96-well plate was organized as follows. Media (100 μl) were added to all wells.

glyQS T-box = assay: qRT-PCR transcriptional read-through of T-box-regulated glyQS (confirmation of inhibition of T-box mechanism); assay type: cell-based, Bacillus subtilis 1A5; details: for T-Box targeting: confirmation of inhibition of T-box mechanism from qRT-PCR assay
From the text: Sample preparation of RNA and cDNA.

B. subtilis 168 [3] = test system: B. subtilis 168
Experimental: Gentamicin on BHI agar was used as a control. In short, MRSA and B. subtilis were grown overnight in BHI, and 3-hour day cultures at the optical density of A620 of 0.1 were started for both organisms. The optical density after 3 hours of growth was measured; cultures were then pelleted and resuspended to give 10^11 CFU/ml by optical density. CFU of 10^11 per OD were plated in total; 100 μl of the cells were then plated on BHI agar containing either 128 μg/m1PKZ18 or 64 μg/m1PKZ18-22. Serial dilutions of the cells were plated on plain BHI agar in order to calculate the CFU/ml, which was calculated as the number of colonies found on the plates divided by the total number of bacteria plated. CFU means colony forming units, a measure of live bacteria.

E. coli = assay: Minimum inhibitory and bactericidal concentration determination, Gram-negative control; assay type: cell-based, Escherichia coli
Experimental: as §1

[4] = test system: T-box controlled genes in MRSA; assay: RNA sequencing of MRSA grown in minimal media; assay type: cell-based, Staphylococcus aureus
S. aureus biofilm = assay: MBEC-HTP biofilm model, combinations, Bliss independence model and CFU recovery; assay type: cell-based, Staphylococcus aureus
Experimental: This inherent resistance of bacteria in biofilms and the emergence of antibiotic-resistant bacteria has necessitated the drive to explore competent novel antimicrobial agents such as PKZ18 and the development of combinations of these novel antimicrobial agents with established antibiotics. We determined the minimum biofilm eradication concentration (MBEC) of compounds of Formula I in combination with vancomycin, gentamicin, rifampin, and tetracycline. Three independent experiments were conducted and required a checkerboard dilution to test various concentrations of the following combinations (compound of Formula I+each antibiotic) against S. aureus utilizing an established MBEC™-HTP biofilm model (Innovotech).
Briefly, an overnight culture of S. aureus was diluted to 1×10^5 cells/mL in cation-adjusted Mueller Hinton broth (MHB) supplemented with 1% human plasma and added to the wells of an MBEC plate. […] After incubation, the lid was removed and rinsed in PBS. Following treatment, a tetrazolium (2,3,5-triphenyl tetrazolium chloride, TTC) assay was performed to assess metabolic activity and viability. The lid was rinsed in PBS, transferred to a 96-well plate containing a 0.01% TTC solution in MHB, and incubated at 37° C. overnight. To dissolve the stain from the pegs, the lid was placed in a 96-well plate containing 96% ethanol and the OD of the wells was then read at 490 nm. Data was analyzed with the Bliss independence model using the Combenefit software.
After rinsing in PBS, designated pegs were snapped off the lid using sterile tweezers and placed in 1.5 mL Eppendorf tubes containing 200 μL PBS. Biofilm was disrupted from the pegs by sonicating the tubes for 15 min (Branson M8800H, Branson Ultrasonics, West Chester, Pa., USA), followed by vortexing for 10 s. Three independent serial dilutions were prepared for each sample and plated on tryptic soy agar (TSA) plates that were incubated overnight at 37° C. The plates were then imaged and colonies counted on a ColonyDoc-It™ Imaging station (UVP, Analytik Jena, Beverly, Mass., USA).

[5] = test system: planktonic growth of Staphylococcus
Experimental: An overnight culture of S. aureus (ATCC 29213) was diluted to 1×10^7 cells/mL in tryptic soy broth (TSB) supplemented with 10% human plasma (Innovative Research, Novi, Mich. USA) and added to the wells of an MBEC™-HTP Assay Biofilm Innoculator (Innovotech, Edmonton, AB, Canada). The plate was incubated overnight at 37° C. and shaken at 125 rpm. […] Control wells were without a COMPOUND OF Formula I. The treatment plate was incubated for 24 h at 37° C. after which the lid was removed, rinsed with PBS, and placed in a new 96-well plate containing TSB. The biofilm was removed from the assay lid into the recovery plate wells by sonication, a new plate cover was added, and the viability of the biofilm was determined after 24 h of incubation at 37° C. by reading the OD at 625 nm. Three independent experiments were conducted. Concentrations of interest were followed up with colony forming unit (CFU) recovery and scanning electron microscopy analysis. After conclusion of the MBEC assay, the minimum bactericidal concentration (MBC) was determined. The MBC is the lowest concentration of an antibacterial agent required to kill a particular bacterium. The peg lid from the MBEC assay was removed from the challenge plate and 20 μL of medium from each well of the challenge plate was removed and added to a new sterile 96-well plate filled with 180 μL TSB. […]

[6] = test system: S. aureus N315 (MRSA isolate); assay: Minimum inhibitory and bactericidal concentration determination; assay type: cell-based, Staphylococcus aureus
Experimental: as §1

S. aureus N315 (MRSA) = assay: Antibiotic resistance frequency (fluctuation assay); assay type: cell-based, Staphylococcus aureus; details: MRSA plated on 64 μg/ml PKZ18-22 or 10 μg/ml gentamicin
From the text: Gentamicin on BHI agar was used as a control.

## CC(C)Cc1ccc(-c2csc(NC(=O)C3C4CCC(C4)C3C(=O)O)n2)cc1 (centres unmarked) [PKZ18-22]
[1]; MRSA in minimal media, 4 μg/ml
  relative read-through of ileS and tyrS: decrease
[1]; MRSA in rich media, 8 μg/ml
  read-through of ileS and tyrS: reduced
S. aureus N315; both rich and minimal media, WT MRSA
  FIC of PKZ18-22 and gentamicin: 0.38
S. aureus N315; in combination with gentamicin
  fold decrease in the MIC of PKZ18-22: 4 fold
S. aureus N315; with ampicillin
  fractional inhibitory concentration FIC: 0.75
S. aureus N315; with chloramphenicol
  fractional inhibitory concentration FIC: 0.75
S. aureus N315; with gentamicin
  fractional inhibitory concentration FIC: 0.38
S. aureus N315; with kanamycin A
  fractional inhibitory concentration FIC: 0.38
S. aureus N315; with neomycin B
  fractional inhibitory concentration FIC: 0.38
S. aureus N315; with streptomycin
  fractional inhibitory concentration FIC: 0.75
B. subtilis 168 [2]; B. subtilis 168
  bactericidal effect: bactericidal
B. subtilis 168 [2]; minimal media
  MIC against B. subtilis 168 in minimal media: 4 µg/mL (≈ 10 µM)
B. subtilis 168 [2]; rich media
  MIC against B. subtilis 168 in rich media: 16 µg/mL (≈ 40.1 µM)
glyQS T-box; 4 μg/ml of each drug, side by side in same biological replicate
  inhibition of read-through compared with PKZ18: significantly better than PKZ18
glyQS T-box; B. subtilis 1A5, increasing concentrations, minimal media
  T-box-controlled expression of glyQS (termination of read-through): inhibited
glyQS T-box; Table 1
  T-Box targeting: Yes
glyQS T-box; Table 2
  T-Box targeting: Yes
B. subtilis 168 [3]
  resistant colonies: did not generate resistant colonies
E. coli
  MIC E. coli: > 256 µg/mL
E. coli; value in parentheses
  MBC E. coli: > 256 µg/mL
[4]; 4 and 8 μg/ml
  cysteine and histidine T-boxes (cysE-cysS and hisS-aspS operons): inhibited only by the higher concentration
  read-through of alaS: not inhibited
  read-through reduction of tyrS: not statistically significant
[4]; 4 and 8 μg/ml vs untreated
  overall change in gene expression: large overall change in expression
[4]; 4 or 8 μg/ml PKZ18-22
  genes under T-box control (out of the 12) with reduced expression: 8
[4]; both concentrations (4 and 8 μg/ml), normalized to untreated
  read-throughs of glyS, ileS, leuS, pheST, serS, thrS and valS: reduction
[4]; non-T-box 5′UTR regulated genes
  relative read-through of other riboswitch-controlled genes: did not significantly change
S. aureus biofilm; PKZ18-22 25 μg/mL and gentamicin 16 μg/mL and 64 μg/mL
  highest synergy score (Bliss): 87
S. aureus biofilm; PKZ18-22 25 μg/mL and gentamicin 64 μg/mL, 24 h exposure
  log reduction in CFU/mL in biofilm growth: ~5 log
S. aureus biofilm; PKZ18-22 25 μg/mL and rifampin 0.001 or 0.005 μg/mL, single dose 24 h
  biofilm CFU reduction with rifampin combination: significantly greater reduction when compared to each treatment alone
S. aureus biofilm; PKZ18-22 25 μg/mL and vancomycin 4 μg/mL
  maximal synergy score (Bliss): 43
S. aureus biofilm; combination of gentamicin/PKZ18-22, single dose 24 h challenge
  cell reduction: > 99.9%
S. aureus biofilm; single dose 24 h challenge
  synergy with minocycline: not synergistic
[5]
  planktonic growth over a range of concentrations: killing curve
[6]; MRSA
  bactericidal effect: bactericidal
[6]; MRSA strain S. aureus N315
  fold reduction in MIC in minimal compared to rich media: 4 fold
[6]; S. aureus N315, minimal media
  MIC against S. aureus in minimal media: 8^b μg/ml
[6]; S. aureus N315, rich media
  MIC against S. aureus in rich media: 32^b μg/ml
[6]; Table 2
  MIC S. aureus N315: 32 µg/mL (≈ 80.3 µM)
[6]; Table 2, value in parentheses
  MBC S. aureus N315: 64 µg/mL (≈ 161 µM)
S. aureus N315 (MRSA)
  resistance frequency: 5.6×10^−12
